One block for each molecule: values may come before it.
Legend:
K-Ras(M72C) GDP = target: T1, K-Ras(M72C) GDP (Homo sapiens, UniProt P01116, M72C); test: βME50 determination of tethering fragments; format: binding; conditions: relative to 2C07
T1 construct: Untagged recombinant 1-169 K-Ras(M72C) GDP; His6 (cleaved yes); made in house; host or cells: Escherichia coli BL21(DE3)
Procedure: (§1) A tethering library of 960 disulfides were screened against 1-169 K-Ras(M72C) GDP using intact protein mass spectrometry to monitor percent modification (See Methods, and FIG. 37). […] To better prioritize tethering fragments, a βME50 value (the concentration of βME needed to reduce disulfide fragment modification to 50%) was determined for each compound. A higher βME50 value corresponds to a better fragment as it can bind with increasing concentrations of competitive thiol (Erlanson et al., 2004; Yang et al., 2009).
We next explored small chemical modifications to 2C07.

WT H-Ras = target: T2, WT H-Ras (Homo sapiens, UniProt P01112); test: BioLayer interferometry (BLI) reversible binding
T2 construct: made in house; host or cells: Escherichia coli BL21(DE3)

H-Ras(M72C) GDP = H-Ras(M72C) GDP (Homo sapiens, UniProt P01112, M72C); test: Competition labeling experiments (Compound 3 vs Compound 4); format: binding; design: Labeling studies were conducted using the 1-166 H-Ras(M72C) construct containing all endogenous cysteines; His6; made in house; host or cells: Escherichia coli BL21(DE3); conditions: 20 μM Compound 3, varying Compound 4 (0-180), 4 μM H-Ras(M72C) GDP
Procedure: Competition Labeling Experiments.
[…] were made in Gel Filtration buffer (20 mM HEPES (pH 7.5), 150 mM NaCl) with no added reductant at room temperature. The final concentrations of each reagent were as follows: […], 1 mM MgCl2, […], X mM Compound 4, and a total DMSO concentration of 4% by volume. Compound 4 was varied from OX (0 mM), 1× (20 mM), 3× (60 mM), and 9× (180 mM) respectively. Adding the desired volume of Gel Filtration Buffer, MgCl2, DMSO, and 10 mM compound stocks of Compounds 3 and 4 was done first and mixed thoroughly before protein was added. Reactions were started by the addition and gentle mixing by pipette of concentrated Ras stocks diluted into the master reaction down to […]. Each reaction was set in triplicate and allowed to react at room temperature in the dark (either covered in aluminum foil or in a bench drawer) until the desired time point was reached. At each time point, […] aliquots of each 200 mL master reaction was sampled and quenched by the addition of […] of 2% formic acid (also made in Gel Filtration Buffer). This 25 mL quenched sample was then analyzed by LC/MS and the remaining master reaction was allowed to continue reacting after gentle mixing by pipette. The percent modification was analyzed by electrospray mass spectrometry using a Waters Acquity UPLC/ESI-TQD with a 2.1×50 mm Acquity UPLC BEH300 C4 column.

[1] = target: T3, H-Ras(M72C) GppNHp binding to Raf-1-RBD (Homo sapiens, UniProt P01112, M72C); test: Raf-1-RBD pull-down of labeled H-Ras(M72C) GppNHp; conditions: H-Ras(M72C) GppNHp pre-labeled with compound; various concentrations of H-Ras
T3 construct: and H-Ras (residues 1-166) were transformed into Escherichia coli; His6; made in house; host or cells: Escherichia coli BL21(DE3)
Procedure: FIGS. 29A-29D. […] FIG. 29D: Reconstruction of Ras cycle is achieved by inducing nucleotide exchange of 100 nM Ras by various concentrations of SOS^cat for either 1 or 2 hours and subsequent pull-down by Raf-1-RBD.
FIGS. 33A-33D. […] In FIG. 33B) through FIG. 33D), normalized pull-down signals are shown below the blot. S. E. M for each signal, number of replicates, and […] for each comparative Standard T-Test are summarized herein (see Tables 33B, 33C, and 33D). […] Comparative statistics were done for normalized pull-down signals between protein constructs of the same condition (i.e. in FIG. 33B) and FIG. 33C), column 1 for unlabeled and 1 for labeled protein, 2 for unlabeled and 2 for labeled, and so on were statistically compared, and in FIG. 33D) only the +SOS^cat and +GppNHp lanes were compared across protein constructs). FIG. 33A) Cartoon representation of pull down protocol. […] Reported values are quantified pull-down signals normalized to input. FIG. 33B) Cartoon representation of pull down protocol. […] FIG. 33C) Cartoon representation of pull down protocol. […] FIG. 33D) Cartoon representation of pull down protocol. Ras activation is achieved by catalyzing nucleotide exchange by SOS^cat and indirectly reading out activated Ras by subsequent pull down by Raf-1-RBD.

[2] = target: T3, H-Ras(M72C) GppNHp binding to Raf-1-RBD; test: Ras GppNHp in vitro pull down by His6-MBP-Raf-1-RBD; conditions: H-Ras(M72C) pre-labeled with compound
Procedure: Ras GppNHp In Vitro Pull Down Assay by His6-MBP-Raf-1-RBD. For each His6-MBP-Raf-1-RBD in vitro pull down the total volume was 500 μL. Each reaction had the following final composition: Either 20, 80, 200, 400, or 800 nM Ras GppNHp (from 0.2 mg/mL Ras stock), 75 nM BSA (2.5 μg, 5 μL of 0.5 mg/mL BSA stock), 200 nM of His6-MBP-Raf-1-RBD (5.3 μg, 1.2 μL of 4.38 mg/mL stock of His6-MBP-Raf-1-RBDwitt), and Raf Pull Down Buffer to volume (25 mM Tris (pH 7.2), 150 mM NaCl, 5 mM MgCl2, 1% NP-40, 5% glycerol, 20 mM imidazole). Samples were then mixed by gentle rotation at 4° C. for 30 min. While equilibrating, add 50 μL Ni-NTA slurry (Qiagen) to a cellulose acetate spin cup and spin at 5,000 rpm on a tabletop centrifuge for 30 seconds. Wash the beads with 400 μL of Raf Pull Down Buffer to wash away bead storage buffer. Before adding each pull down solution, take 10 μL and save as a loading control sample. To each spin cup filled with washed Ni-NTA beads, add the remaining equilibrated pull down solution, seal the spin cup with parafilm and let rotate at 4° C. for 30 more minutes. After mixing, centrifuge the sample for 30 seconds at 5,000 rpm. Toss flow through. Wash the beads X 5 with 400 μL of Raf Pull Down Buffer. After last wash, centrifuge one last time to remove any excess buffer stuck to the beads. […] Blots were read out using LICOR compatible secondary antibodies. […]

[3] = target: T4, H-Ras(M72C) bound to either GDP or GppNHp (Homo sapiens, UniProt P01112, M72C); test: Electrophile labeling experiments (percent modification by whole protein LC/MS); format: binding; conditions: 4 μM H-Ras(M72C) GDP or GppNHp, 100 μM electrophile, 24 hours
T4 construct: Labeling studies were conducted using the 1-166 H-Ras(M72C) construct containing all endogenous cysteines; His6; made in house; host or cells: Escherichia coli BL21(DE3)
Procedure: Electrophile Labeling Experiments.
Each reaction was analyzed in a 96 well plate format for analysis by LC/MS. Total reaction volumes were 25 μL for single time point labeling experiments and 200 uL for full 24-hour time courses. 25 μL reactions were made in the wells of a V-bottom 96 well plate and 200 uL reactions were made in 1.25 mL eppendorf tubes. All labeling reactions were conducted in Gel Filtration Buffer (20 mM HEPES (pH 7.5), 150 mM NaCl) with no added reductant at room temperature. […] Electrophile stocks were made in DMSO at 10 mM, aliquoted, and frozen. Labeling reactions were started by the addition of the desired volume of 10 mM electrophile stock and mixed thoroughly by pipette. General screening of new electrophiles was done at 100 μM electrophile in triplicate and sampled as a single time point after 24 hours of incubation. For Compound 3, labeling time courses were conducted at 20 μM compound with sampling done every 2 hours for the first 10 hours of incubation and continued after overnight incubation until the protein was fully modified. Reactions were allowed to sit at room temperature in the dark (either covered in aluminum foil or in a bench drawer) until the desired time point was reached. For 24-hour single point labeling experiments, the reaction was directly sampled from the 96 well plate and analyzed by LC/MS. For experiments with multiple time points, 22.5 μL aliquots of the 200 μL master reaction were sampled and quenched by the addition of 2.5 μL of 2% formic acid (also made in Gel Filtration Buffer). This 25 μL quenched sample was then analyzed by LC/MS and the remaining master reaction was allowed to continue reacting after gentle mixing by pipette. The percent modification was analyzed by electrospray mass spectrometry using a Waters Acquity UPLC/ESI-TQD with a 2.1×50 mm Acquity UPLC BEH300 C4 column.

1-169 K-Ras(M72C) GDP = target: T5, 1-169 K-Ras(M72C) GDP (Homo sapiens, UniProt P01116, M72C); test: Disulfide tethering screen, percent modification by intact protein mass spectrometry; format: binding; conditions: screening βME 1 mM
T5 construct: Untagged recombinant 1-169 K-Ras(M72C) GDP; His6 (cleaved yes); made in house; host or cells: Escherichia coli BL21(DE3)
From the text: In some embodiments, a library of disulfide compounds may be screened against a cysteine-containing protein in the presence of a reducing agent such as β-mercaptoethanol (BME). Compounds with complementary binding contacts with a region of the protein near the cysteine may shift the disulfide exchange equilibrium away from BME modification of the cysteine thiol and enhance the ratio of the hit ligand bound to the cysteine. The resulting mass change of the protein can be readily detected by mass spectrometry, and the percentage of modified protein can be used as a measure of potency. Compounds which exchange with the cysteine without conferring affinity should exchange with reducing agent equally well and will not shift the equilibrium toward protein modification. The potency of various compounds at a given concentration of BME may be compared by calculating the dose-response 50 (DR50), which is the concentration of compound at which the protein becomes 50% modified.
A tethering library of 960 disulfides were screened against 1-169 K-Ras(M72C) GDP using intact protein mass spectrometry to monitor percent modification (See Methods, and FIG. 37). […] To better prioritize tethering fragments, a βME50 value (the concentration of βME needed to reduce disulfide fragment modification to 50%) was determined for each compound. […]

[4] = target: T6, full-length wild-type K-Ras (Homo sapiens, UniProt P01116); test: Disulfide fragment labeling of full-length wild-type K-Ras (Cys 72 selectivity); format: binding; conditions: wild-type K-Ras contains 4 native cysteine residues
T6 construct: His6; made in house; host or cells: Escherichia coli BL21(DE3)

H-Ras(M72C) GppNHp = H-Ras(M72C) GppNHp (Homo sapiens, UniProt P01112, M72C); test: βME50 and percent labeling of tethering fragments, GppNHp state; format: binding; design: Labeling studies were conducted using the 1-166 H-Ras(M72C) construct containing all endogenous cysteines; His6; made in house; host or cells: Escherichia coli BL21(DE3); conditions: disulfide tethering at Cys 72
Procedure: FIG. 32. […] Percent labeling against H-Ras(M72C) GDP and GppNHp at the screening βME concentration (1 mM) are graphed.
as §1

Compound: COc1ccc(-n2ncc(C(=O)NCCCCSSCCN(C)C)c2C(F)(F)F)cc1 [Compound 2C07b, N-(4-((2-(dimethylamino)ethyl)disulfanyl)butyl)-1-(4-methoxyphenyl)-5-(trifluoromethyl)-1H-pyrazole-4-carboxamide]
change in βME50 (K-Ras(M72C) GDP): small decrease

Compound: COc1ccc(-n2cc(C(=O)NCCCSSCCN(C)C)cn2)cc1 [Compound 2C07c, N-(3-((2-(dimethylamino)ethyl)disulfanyl)propyl)-1-(4-methoxyphenyl)-1H-pyrazole-4-carboxamide]
change in βME50 (K-Ras(M72C) GDP): drastic decrease

Compound: CN(C)CCSSCCCNC(=O)C(=O)c1c[nH]c2ccccc12 [Compound 2B02, N-(3-((2-(dimethylamino)ethyl)disulfanyl)propyl)-2-(1H-indol-3-yl)-2-oxoacetamide]
percent modification (1-169 K-Ras(M72C) GDP): 52.8%
modification of full-length wild-type K-Ras [4]: did not modify
labeling of H-Ras(M72C) GppNHp (H-Ras(M72C) GppNHp): labeled

Next, values leading:

reversible binding by BLI (WT H-Ras): unable to detect measurable binding
rate of Compound 3 labeling (% labeled per hour) in presence of Compound 4 (H-Ras(M72C) GDP): dose dependent decrease
rate of Compound 3 labeling (% labeled per hour) in presence of Compound 4 (H-Ras(M72C) GDP; listed as compound 4): dose-dependent decrease
Compound: CCC(=O)Nc1cc(Cl)cc(NC(=O)c2cnn(-c3ccc(OC)cc3)c2C(F)(F)F)c1 [Compound 4, N-(3-chloro-5-propionamidophenyl)-1-(4-methoxyphenyl)-5-(trifluoromethyl)-1H-pyrazole-4-carboxamide]

Raf-1-RBD binding [1]: do not inhibit Raf RBD binding
Raf-1-RBD binding (pull down), labeled vs unlabeled H-Ras(M72C) [2]: did not inhibit Raf-1-RBD binding
Percent modification (labeling of Cys 72) [3]: significant increase
Compound: C=CC(=O)Nc1cccc(NC(=O)c2cnn(-c3ccc(OC)cc3)c2C(F)(F)F)c1 [Compound 2, N-(3-acrylamidophenyl)-1-(4-methoxyphenyl)-5-(trifluoromethyl)-1H-pyrazole-4-carboxamide]

Percent modification (labeling of Cys 72) [3]: no detectable labeling
Compound: C=CC(=O)Nc1ccc(NC(=O)c2cnn(-c3ccc(OC)cc3)c2C(F)(F)F)cc1 [Compound 1, N-(4-acrylamidophenyl)-1-(4-methoxyphenyl)-5-(trifluoromethyl)-1H-pyrazole-4-carboxamide]
